Data reported in patent US20140329863A1 (priority 2011, published 2014).
Converted amounts (≈) assume the structure as drawn.

Assays:
[1] = Single-dose pharmacokinetics in FVB mice (oral gavage, IV); settings: for Kp / Cmax / Tmax / AUC(0-t) / half-life / bioavailability: female, FVB, mouse
[2] = Metabolite identification in human, mouse, rat and dog liver microsomes; type: in vitro ADME
Protocol: Samples were injected onto a BetaBasic C18 column and eluted with a gradient elution of mobile phase B (0.1% formic acid in ACN) from 5% to 95% over 30 min. For IND24-containing samples, the transitions monitored were 344→226 (parent); 360→226 and 360→242 (monohydroxylation); and 376→242 and 376→258 (dihydroxylation). […] Plasma and brain homogenate samples from FVB mice in single-dose (10 mg/kg) pharmacokinetic studies were similarly scanned to detect potential hydroxylated metabolites.
Metabolites were separated on a Kinetex 100-Å column (2.6 μm, 100×2.1 mm, Phenomenex, Torrance, Calif.) at ambient temperature. […]
The Orbitrap mass analyzer was calibrated according to the manufacturer's directions using a mixture of caffeine, Met-Arg-Phe-Ala (MRFA) peptide and Ultramark 1621. The parent compounds and their metabolites were detected by full scan mass analysis from m/z 150-1000 at a resolving power of 60,000 [at m/z 400, full width at half maximum (FWHM); 1-s acquisition] with data-dependent MS/MS analyses triggered by the most abundant ion. […] The data obtained was analyzed using Xcalibur v2.1 software (ThermoScientific; Waltham Mass.). Four-decimal monoisotopic masses of the parent compounds and their oxidative metabolites calculated using ChemBioDraw Ultra software version 11.0 (CambridgeSoft; Cambridge, Mass.) were used to interpret further the fragment ions.

[3] = Fraction unbound in cell-culture media; type: in vitro ADME; settings: 1 μM; mean ± SD, n = 3
CYP2C9 = target: T1, CYP2C9 (Homo sapiens, UniProt P11712); assay: CYP phenotyping in human liver microsomes, sulphaphenazol; type: in vitro ADME
T1 construct: tissue BD Biosciences; host or cells: pooled human liver microsomes
T1 sequence (P11712 whole entry): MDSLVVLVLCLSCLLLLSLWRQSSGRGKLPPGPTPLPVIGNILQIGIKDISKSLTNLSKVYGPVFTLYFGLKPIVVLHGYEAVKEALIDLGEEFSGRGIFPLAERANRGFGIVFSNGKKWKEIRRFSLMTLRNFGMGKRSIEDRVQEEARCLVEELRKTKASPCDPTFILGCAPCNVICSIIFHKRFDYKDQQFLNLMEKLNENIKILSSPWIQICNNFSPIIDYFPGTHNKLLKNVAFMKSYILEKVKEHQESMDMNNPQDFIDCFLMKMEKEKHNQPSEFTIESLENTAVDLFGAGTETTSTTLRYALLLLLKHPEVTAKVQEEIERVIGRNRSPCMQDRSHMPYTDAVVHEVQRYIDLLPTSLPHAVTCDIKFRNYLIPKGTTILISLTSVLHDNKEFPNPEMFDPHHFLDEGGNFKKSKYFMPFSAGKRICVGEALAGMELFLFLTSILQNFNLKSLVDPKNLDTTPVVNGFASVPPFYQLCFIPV

[4] = Tolerability / toxicity on repeated dosing in mice; settings: chronic studies in mice, wide range of doses
CYP2C19 [5] = target: CYP2C19 (Homo sapiens, UniProt P33261)
CYP2C19 (Homo sapiens, UniProt P33261), sequence (P33261 whole entry): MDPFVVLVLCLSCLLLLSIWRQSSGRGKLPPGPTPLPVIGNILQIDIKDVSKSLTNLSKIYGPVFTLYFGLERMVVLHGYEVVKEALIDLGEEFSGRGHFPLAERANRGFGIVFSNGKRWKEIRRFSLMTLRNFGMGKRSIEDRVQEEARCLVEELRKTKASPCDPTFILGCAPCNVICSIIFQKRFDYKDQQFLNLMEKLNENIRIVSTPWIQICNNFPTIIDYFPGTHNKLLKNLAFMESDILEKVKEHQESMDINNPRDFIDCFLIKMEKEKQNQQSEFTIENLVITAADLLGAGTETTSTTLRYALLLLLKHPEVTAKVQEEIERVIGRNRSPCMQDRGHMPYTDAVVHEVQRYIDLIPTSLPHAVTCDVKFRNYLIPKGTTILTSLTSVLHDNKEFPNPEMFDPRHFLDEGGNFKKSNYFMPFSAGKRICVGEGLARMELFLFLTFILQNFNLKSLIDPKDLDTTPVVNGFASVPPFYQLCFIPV

CYP2C19 [6] = settings: reversible incubation condition, NADPH + N-3-B
CYP3A4 = target: T2, CYP3A4 (Homo sapiens, UniProt P08684); assay: CYP phenotyping in human liver microsomes, ketoconazole; type: in vitro ADME
T2 construct: tissue BD Biosciences; host or cells: pooled human liver microsomes
T2 sequence (P08684 whole entry): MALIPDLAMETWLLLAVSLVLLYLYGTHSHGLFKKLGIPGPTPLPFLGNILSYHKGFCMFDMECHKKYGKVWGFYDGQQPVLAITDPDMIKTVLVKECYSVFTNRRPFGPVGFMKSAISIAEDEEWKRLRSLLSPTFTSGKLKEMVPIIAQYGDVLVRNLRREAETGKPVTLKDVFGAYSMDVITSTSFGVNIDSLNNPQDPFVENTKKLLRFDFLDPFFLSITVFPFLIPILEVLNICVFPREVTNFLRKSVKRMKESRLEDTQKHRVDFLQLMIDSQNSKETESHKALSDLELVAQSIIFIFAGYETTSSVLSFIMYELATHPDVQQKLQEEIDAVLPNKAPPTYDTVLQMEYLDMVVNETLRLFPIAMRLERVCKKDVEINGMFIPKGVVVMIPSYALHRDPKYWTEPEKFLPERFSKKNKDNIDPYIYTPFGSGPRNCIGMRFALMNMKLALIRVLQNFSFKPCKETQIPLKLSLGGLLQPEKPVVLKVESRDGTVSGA

[7] = reversible incubation condition, NADPH + Sulphaphenazol
[8] = reversible incubation condition, NADPH + Ketoconazole

Cc1ccnc(Nc2nc(-c3ccc(-c4ccccn4)s3)cs2)c1 [IND81, (4-Methyl-pyridin-2-yl)-[4-(5-pyridin-2-yl-thiophen-2-yl)-thiazol-2-yl]-amine]
AUClast ([1]; PO 40 mg/kg, brain, female FVB mice): 1592 ± 794 ng·h/g
Kp ([1]; brain and plasma, po, 10 mg/kg): 5.5
Cmax ([1]; brain, po, 40 mg/kg): 568 ± 186 ng/g
Tmax ([1]; brain, po, 40 mg/kg): 30 min
Kp ([1]; brain/plasma, po, 40 mg/kg): 5.53
AUC(0-t) ([1]; plasma, iv, 1 mg/kg): 106 ± 12.4 ng·h/mL
Cmax ([1]; plasma, iv, 1 mg/kg): 183 ± 96.6 ng/mL
Tmax ([1]; plasma, iv, 1 mg/kg): 4.98 min
half-life ([1]; plasma, iv, 1 mg/kg, t1/2, IV 1 mg/kg, female FVB mice): 70.2 min
bioavailability ([1]; plasma, po, 10 mg/kg): 25 to 27%
AUC(0-t) ([1]; plasma, po, 40 mg/kg): 288 ± 136 ng·h/mL
Cmax ([1]; plasma, po, 40 mg/kg): 152 ± 10.6 ng/mL
Tmax ([1]; plasma, po, 40 mg/kg): 30 min
bioavailability ([1]; plasma, po, 40 mg/kg): 27.2%
half-life ([1]; plasma, po, 40 mg/kg, t1/2, PO 40 mg/kg, female FVB mice): 58.2 min
Brain exposure (AUClast) ranking ([1]; single oral dose, FVB mice, brain): highest AUC values in brain
Percentage binding, Rat plasma, 1 μM (Binding in rat plasma; 1 μM): 94.2 ± 0.48%
Percentage binding, Rat plasma, 10 μM (Binding in rat plasma; 10 μM): 95.5 ± 0.66%
major metabolites [2]: ring hydroxylation
Unbound (%), Cell-culture Media [3]: 23.2 ± 2.68%
solubility (physchem; FaSSIF): 3 µM (≈ 1.05 µg/mL)
solubility (physchem; cell culture media, plasma or biological fluid): 207 µM (≈ 72.5 µg/mL)
solubility (physchem; pH 2 (HCl) buffer, pH 2, simulated gastric fluid): 78 µM (≈ 27.3 µg/mL)
solubility (physchem; pH 7.4 (phosphate) buffer, pH 7.4, aqueous buffer): < 1 µM
CYP Involvement (CYP2C9; CYP2C9, NADPH + Sulphaphenazol): Unlikely (unlikely for values <5)
% Disappearance (CYP2C9; [7]): 64%
Measured Conc. (CYP2C9; [7]): 0.238 µM
Δ % Disappearance (CYP2C9; [7]): 1.8%
tolerability [4]: well tolerated
CYP Involvement (CYP2C19 [5]; CYP2C19, NADPH + N-3-B): Possible (possible for values 5-10)
Δ % Disappearance (CYP2C19 [5]; reversible incubation condition, NADPH + N-3-B): 8.5%
% Disappearance (CYP2C19 [6]): 57%
Measured Conc. (CYP2C19 [6]): 0.283 µM
Percentage binding, Mouse plasma, 1 μM (Binding in mouse plasma; 1 μM): 93.5 ± 1.10%
Unbound (%), Mouse Plasma (Binding in mouse plasma; 1 μM, mean ± SD, n = 3 (warfarin n = 2)): 6.48 ± 1.10%
Percentage binding, Mouse plasma, 10 μM (Binding in mouse plasma; 10 μM): 96.0 ± 0.04%
CYP Involvement (CYP3A4; CYP3A4, NADPH + Ketoconazole): Likely (likely for values >10)
% Disappearance (CYP3A4; [8]): 51%
Measured Conc. (CYP3A4; [8]): 0.324 µM
Δ % Disappearance (CYP3A4; [8]): 15%
